# Reference: US20080299098A1, “Broad-Spectrum Antibacterial and Antifungal Activity of Lactobacillus Johnsonii D115” (priority 2007, published 2008)
# Where two headings read alike, the source gives them in different places.
# Experiments:
# Brachyspira pilosicoli = conditions: for Plate count: hydrogen peroxide 3300 μM
# [1] = tested on: Brachyspira hyodysenteriae; conditions: for Plate count: hydrogen peroxide 3100 μM
# [2] = hydrogen peroxide at approximately 3,000 μM, 2 h
structure (smiles),measurement,setting,value
OO [hydrogen peroxide],Plate count,Brachyspira pilosicoli; 0 hr,6.00 × 10^6 CFU per ml
same,Plate count,Brachyspira pilosicoli; 2 hr,3.00 × 10^1 CFU per ml
same,reduction of count,Brachyspira pilosicoli; [2],5 logs
same,Plate count,[1]; 0 hr,5.0 × 10^5 CFU per ml
same,Plate count,[1]; 2 hr,9 CFU per ml
same,reduction of count,[1]; [2],4 logs
